Converted amounts (≈) assume the structure as drawn. The source made the active and inactive calls. The calls are words filed in the database; no cut-off is given here.
Legend:
Candida albicans = assay: Antifungal activity against candida albicans was determined; Active; assay type: functional, organism-based
HCT-116 = assay: Cytotoxicity against a human colon cancer cell line (HCT116 cells) was reported; assay type: functional

`COc1cc(CCN)c2c(c1OC)SSSSS2` [VARACIN] was tested, and the Activity (Candida albicans) was “Active” and the IC90 (HCT-116) was 0.05 µg/mL (≈ 0.147 µM).
